According to article PMC5437200, “Ionic liquids for the passive sampling of sulfonamides from water—applicability and selectivity study” (Analytical and Bioanalytical Chemistry, 2017):

Assays:
[1] = parameters: method as in PMID 22579461; details: cited from earlier work
[2] = ionization degrees of sulfonamides in the donor solution (calculated); assay type: physicochemical; details: initial pH 5.64; calculated using equations in ref 39
[3] = octanol-water shake experiment for logKOW and logDOW; assay type: physicochemical; details: for logD: n-octanol/ultrapure water pH 5.6, room temperature, read-out: LogD OW pH 5.6 (exp); for LogK OW (exp): n-octanol/ultrapure water, room temperature
[4] = stability (recovery) of ionic liquids inside the PASSIL dosimeter; assay type: physicochemical; details: PES membranes, 14-day passive sampling, 20 °C; from IL mass before and after
Protocol: Passive sampling experiments were conducted analogously to previous studies. The passive dosimeter was made of plexiglass and contained two polyethersulfone (PES) membranes with their inner sides covered with the receiving phase—ionic liquid (separately for each of the seven tested ILs) of a total mass equal to 200 mg. Nylon (Phenomenex) and Teflon (Merck) membranes were also tested. The donor phase was 100 mL of water solution with an initial sulfonamide concentration of 2 μg mL^−1. The experimental setup was kept away from light radiation and at a constant temperature (20 °C). Each extraction lasted 14 days and the samples (1 mL) of the donor solution were collected every 2 days. The solution was stirred using a magnetic stirrer (1000 rpm), which was not renewed. After the experiment, the receiving phase was dissolved using 50 mL of acetonitrile. All the obtained samples (both from the donor and receiving phases) were analyzed by HPLC with a diode-array detector (DAD, Schimadzu, 272 nm). The analysis was performed using a Gemini 5-μm C18 column (Phenomenex). The injection volume was 10 μL. The flow rate was 1.5 mL min^−1. Acetonitrile (ACN) was used as the organic component of the mobile phase, and the aqueous component was an acetate buffer (5 mmol L^−1 CH3COONH4, pH = 4) with 5% of ACN. The mobile phase gradient was applied. The recovery of the receiving phase, the extraction efficiency, and the sampling rate (for [P666-14][N(CN)2]) were calculated for each analyte according to the equations presented in [30]. Moreover, micrographs using a HITACHI S-3400N scanning electron microscope (SEM) were taken to study the morphological appearance of the membranes covered with an ionic liquid [P666-14][N(CN)2].
The basic parameter of an applied ionic liquid is its physical stability inside the homemade dosimeter expressed by the IL recovery (%) calculated from the difference between ionic liquid masses before and after the passive sampling. The highest recovery (more than 90%) of ionic liquids was achieved by phosphonium-cation-based ILs and PES membranes (Fig. 3). […]

Compound	pKa2 [1]	pKa3 [1]	α2 ionization degree [2] [%]	α3 ionization degree (negatively charged form) [2] [%]	logD [3]	LogK OW (exp) [3]	IL recovery [4] [%]
COc1cc(NS(=O)(=O)c2ccc(N)cc2)nc(OC)n1 [SDX, sulfadimethoxine]	2.5	5.9	99.9	35.5			
Nc1ccc(S(=O)(=O)Nc2ccc(Cl)nn2)cc1 [SCP, sulfachloropyridazine]	2.2	5.5	100.0	58.0	0	0.36	
CCCCCCCCCCCCCC[P+](CCCCCC)(CCCCCC)CCCCCC.O=S(=O)([N-]S(=O)(=O)C(F)(F)F)C(F)(F)F [[P666-14][TFN], trihexyl(tetradecyl)phosphonium bis(trifluoromethylsulfonyl)imide]							98.9
Nc1ccc(S(=O)(=O)Nc2nccs2)cc1 [STZ, sulfathiazole]	2.1	7.1	100.0	3.4	-0.17	−0.16	
Nc1ccc(S(=O)(=O)Nc2ncccn2)cc1 [SDZ, sulfadiazine]	1.8						
CCCCCCCCCCCCCC[P+](CCCCCC)(CCCCCC)CCCCCC.N#C[N-]C#N [[P666-14][N(CN)2], trihexyl(tetradecyl)phosphonium dicyanamide]							92.4
Cc1ccnc(NS(=O)(=O)c2ccc(N)cc2)n1 [SMZ, sulfamerazine]	1.8	6.8	100.0	6.5	0.16	0.19	
Nc1ccc(S(=O)(=O)Nc2ccccn2)cc1 [SPD, sulfapyridine]	2.4	8.2	99.9		0.04	0.04	
CCCCCCCCCCCCCC[P+](CCCCCC)(CCCCCC)CCCCCC.FC(F)(F)C(F)(F)[P-](F)(F)(F)(C(F)(F)C(F)(F)F)C(F)(F)C(F)(F)F [[P666-14][(C2F5)3PF3], trihexyl(tetradecyl)phosphonium tri(pentafluoroethyl)trifluorophosphate]							98.5
Cc1nnc(NS(=O)(=O)c2ccc(N)cc2)s1 [SMT, sulfamethiazole]	1.8	5.5	100.0	58.0	-0.34	0.01	
